In patent US3949075A, “Anti-microbial compounds of 2', 4' substituted anilides of substituted nitrosalicylic acid for quadruped animals” (Ferro Corporation, priority 1974, dated 1976):
Read-outs that look alike come from different tables or passages of the source.

What was measured:
Haemonchus contortus = test: Percent of Haemonchus destroyed or expelled in infected sheep (egg count after treatment); format: in vivo, Haemonchus contortus (in sheep)
Procedure: Two groups of sheep were used in the tests. One group was used as a non-medicated control, while the other group was treated with the compound under investigation. Helminth-free young lambs were infected with about 10,000 filariform larvae of Haemonchus contortus. In three weeks when the infection became apparent, egg counts were made to determine the density of the worm burden.
The egg count was carried out using the following modified Stoll method. Three grams of sheep feces were taken rectally from each animal and placed in a Stoll flask. To each flask, tap water was added to the top line. The fecal pellets were too hard to break down, the flasks were closed with rubber stoppers and kept in the refrigerator for several hours. The flasks were thoroughly shaken and a 1 ml. sample was drawn from the middle using a wide mouth pipette. This 1 ml. sample was transferred to an 8 ml. plastic tube, to which enough saturated sodium chloride solution was added to reach the rim. The tubes were then centrifuged for 10 minutes at 1500 r.p.m. Then sodium chloride solution was added with a medicine dropper forming a concave miniscus. A cover glass was carefully added and the tubes were kept in a refrigerator for ten to twenty minutes. During that period, the nematode ova flowed upward and adhered to the bottom of the cover glass slip. At the end of the 20-minute period, the cover slip was carefully detached from the miniscus and transferred to a microscopic slide. The ova were then counted under a microscope equipped with 10X ocular and 10X objective lens. Each ovum under the microscope represented 20 ova in the sample.
Animals with sufficiently high egg counts were taken out of the pool and housed in experimental pens. Since the salicylanilides of the present invention are water insoluble, the compounds were first ground using a mortar and pestle and then were placed in a carboxymethyl cellulose solution. The particles were further micronized ultrasonically. The compound was then administered to two or three animals by Oesophageal gavage. Control, untreated animals, received only the carboxymethyl cellulose solution in a similar manner. On the sixth and seventh day after treatment, fecal pellets were taken from the rectum of the control as well as the treated animals and egg counts were made.
The results of tests on sheep in a manner described, supra, using compounds of the present invention are given in Table 1, Examples 5 through 13. The numbers in the column headed "Haemonchus (15 mg/kg)" refer to the percent of parasites destroyed or expelled when the indicated compound was introduced into the rumen of sheep at a dosage of 15 milligrams per kilogram of body weight. The values under "Tolerance (mg/kg)" refer to the highest test dosage in the milligrams of anthelmintic per kilogram of body weight at which the sheep developed no toxic symptoms. "Tol." is an abbreviation for "tolerated". The symbols R1 and R2 refer to those of Formula I in these and other following examples.
(§1) The data of the tables were generated using procedures previously described. The compounds tested are disubstituted and, except for Example 50 which is dibromo, are dichloro. Where the position for the substituents is other than 2' and 4', it is indicated. Under the indicated microorganisms, the values given in this and the following tables, should be read as: percentage of microorganism killed/dose in milligrams per kilogram of body weight. Under "Tolerance", the term "Tol." means "tolerated", "Tox." means "toxic", and "Sym." means "symptoms of toxic reaction", all at the dosage value which follows. It will be appreciated that there is no sharp toxicity end point in determining toxicity to living sheep.

Fasciola hepatica = test: Test for activity against liver flukes, Fasciola hepatica, in infected sheep; format: in vivo; conditions: Fasciola hepatica; sheep, 15 mg/kg; Tables VIII-XI; read-out: Fasciola hepatica, percentage of microorganism killed
Procedure: Test for activity against liver flukes were conducted as follows:
Eggs of Fasciola hepatica were collected from the bile of donor sheep. The eggs were embryonated and snails were infected (the genus Lymnaea serves as intermediate host) to produce Metacercariae which are the infective forms for sheep. Each sheep was infected with 250 metacercariae intraruminally. When the infection became patent in ca. 80 days, egg counts were carried out to determine the degree of worm burden. The liver was processed to recover F. hepatica in the untreated and treated sheep.
as §1

[1] = Haemonchus contortus, sheep, 15 mg/kg, Table V, read-out: Effectiveness at 15 mg/kg against Haemonchus
[2] = Haemonchus contortus, sheep, 15 mg/kg, Tables VIII-XI, read-out: Haemonchus, percentage of microorganism killed
[3] = Haemonchus contortus, read-out: Effectiveness at 15 mg/kg against Haemonchus, sheep, 15 mg/kg, Table V
[4] = Haemonchus contortus, sheep, intrarumenal, 15 mg/kg, Table II, read-out: Effectiveness in removal of Haemonchus

Row | SMILES | inhibition in vivo at 15 mg/kg (Haemonchus contortus; [1]) | inhibition in vivo at 15 mg/kg (Haemonchus contortus; [2]) | inhibition in vivo at 15 mg/kg (Haemonchus contortus; [4]) | other results
1 | Cc1c([N+](=O)[O-])cc(C(C)(C)C)c(O)c1C(=O)Nc1cccc(Cl)c1 [31 Cl 3'-substitution] | 0% | 0% | – | –
2 | Cc1c([N+](=O)[O-])cc(C(C)(C)C)c(O)c1C(=O)Nc1cccc(I)c1 [33 I 3'-substitution] | – | 14% | – | inhibition in vivo at 15 mg/kg (Haemonchus contortus; [3]): 0%
3 | Cc1c([N+](=O)[O-])cc(C(C)(C)C)c(O)c1C(=O)Nc1cccc(C(F)(F)F)c1 [34 CF3 3'-substitution] | 2% | 2% | – | –
4 | Cc1c([N+](=O)[O-])cc(C(C)(C)C)c(O)c1C(=O)Nc1ccc(I)cc1 [Example 9] | – | 93% | – | inhibition in vivo at 15 mg/kg (Haemonchus contortus; [3]): 93%; inhibition in vivo at 5 mg/kg (Haemonchus contortus; Haemonchus contortus, sheep, 5 mg/kg, Tables VIII-XI, read-out: Haemonchus, percentage of microorganism killed): 22%; Haemonchus (2 mg/kg), percent of parasites destroyed or expelled (Haemonchus contortus; sheep, into rumen, 2 mg/kg, Table 1): 14%; Haemonchus (5 mg/kg), percent of parasites destroyed or expelled (Haemonchus contortus; sheep, into rumen, 5 mg/kg, Table 1): 22%; Haemonchus (15 mg/kg), percent of parasites destroyed or expelled (Haemonchus contortus; sheep, into rumen, 15 mg/kg, Table 1): 93%; inhibition in vivo at 15 mg/kg (Fasciola hepatica): 0%
5 | Cc1c([N+](=O)[O-])cc(C(C)(C)C)c(O)c1C(=O)Nc1ccccc1C(F)(F)F [Example 14] | 0% | 0% | 0% | –
6 | Cc1c([N+](=O)[O-])cc(C(C)(C)C)c(O)c1C(=O)Nc1ccccc1F [Example 15] | – | – | 0% | –
7 | Cc1c([N+](=O)[O-])cc(C(C)(C)C)c(O)c1C(=O)Nc1ccccc1Cl [Example 16] | 33% | 33% | 33% | –
8 | Cc1c([N+](=O)[O-])cc(C(C)(C)C)c(O)c1C(=O)Nc1ccccc1Br [Example 17] | 0% | 0% | 0% | –
9 | Cc1c([N+](=O)[O-])cc(C(C)(C)C)c(O)c1C(=O)Nc1ccccc1I [Example 18] | – | 0% | 0% | inhibition in vivo at 15 mg/kg (Haemonchus contortus; [3]): 0%
10 | Cc1c([N+](=O)[O-])cc(C(C)(C)C)c(O)c1C(=O)Nc1ccc(S(N)(=O)=O)cc1 [Example 19] | – | – | 0% | –
11 | CCOC(=O)c1ccc(NC(=O)c2c(C)c([N+](=O)[O-])cc(C(C)(C)C)c2O)cc1 [Example 20] | – | – | 18% | –
12 | Cc1ccc(NC(=O)c2c(C)c([N+](=O)[O-])cc(C(C)(C)C)c2O)c(C)c1 [Example 21] | – | – | 13% | –
13 | COc1cc(Cl)ccc1NC(=O)c1c(C)c([N+](=O)[O-])cc(C(C)(C)C)c1O [Example 22] | – | – | 10% | –
